Measured values: patent US9988400B2 (Genentech, Inc., priority 2013, dated 2018)

Target: T1, HEK cells stably transfected with tetracycline inducible hNR1 and hNR2A (Homo sapiens, UniProt Q05586+Q12879)
T1 construct: expressed in transfected cells; host or cells: HEK cells, stably transfected, tetracycline/doxycycline inducible
Assay: Assay 1: Cell-Based Assay, cytosolic calcium response to positive allosteric modulators (with 30 μM glycine and 300 nM L-glutamate, EC30)
Conditions: for EC50: cytosolic calcium response, with 30 μM glycine and 300 nM L-glutamate (EC30), — = no plateau was reached; for Max %: responses scaled relative to 100 μM L-glutamate maximal response (100%) and 0 μM L-glutamate (0%)
Description: Assay 1: Cell-Based Assay
HEK cells stably transfected with tetracycline inducible hNR1 and hNR2A were seeded into clear bottom 384 well poly-D-lysine coated plates (2.5×10^4 cells per well) in Minimum Essential Media (MEM; without L-) including 7.5 μg mL^−1 doxycycline and 500 μM (+)-ketamine. The cells were incubated at 37° C. in 5% CO2 for 24 h. For measurement of changes in cytosolic calcium, the seeding media was removed and the cells incubated at 37° C. for 60 min with 1× Becton Dickinson Calcium Assay Kit reagent in Hanks Balanced Salt Solution (HBSS; w/o magnesium, including 1.8 mM calcium, 0.65 mg ml^−1 probenecid and 10 μM (+)-ketamine, pH 7.15) then allowed to equilibrate to rt for 30 min. Concentration-effect curves to Positive Allosteric Modulators (PAMs) were constructed by adding different concentrations (with 30 μM glycine and 300 nM L-glutamate (EC30)) to different wells in HBSS. Compounds were added after a 10 second baseline read and maximum level of relative fluorescence units (RFU) was measured over a 5 min period. Responses were scaled relative to 100 μM L-glutamate maximal response (100%) and 0 μM L-glutamate (0%). EC50 values are provided for compounds reaching maximal response plateaus, and the max % (EC50 (- -)) only if no plateau was reached.
A four-parameter Hill equation was fitted to individual concentration-effect curves:
[formula] in which Y, S0, Sinf, AC50, n and c were effect, lower-asymptote, upper-asymptote, mid-point location, slope parameter, and concentration respectively.

T1 sequence (Q12879 23-1464, other chains not shown): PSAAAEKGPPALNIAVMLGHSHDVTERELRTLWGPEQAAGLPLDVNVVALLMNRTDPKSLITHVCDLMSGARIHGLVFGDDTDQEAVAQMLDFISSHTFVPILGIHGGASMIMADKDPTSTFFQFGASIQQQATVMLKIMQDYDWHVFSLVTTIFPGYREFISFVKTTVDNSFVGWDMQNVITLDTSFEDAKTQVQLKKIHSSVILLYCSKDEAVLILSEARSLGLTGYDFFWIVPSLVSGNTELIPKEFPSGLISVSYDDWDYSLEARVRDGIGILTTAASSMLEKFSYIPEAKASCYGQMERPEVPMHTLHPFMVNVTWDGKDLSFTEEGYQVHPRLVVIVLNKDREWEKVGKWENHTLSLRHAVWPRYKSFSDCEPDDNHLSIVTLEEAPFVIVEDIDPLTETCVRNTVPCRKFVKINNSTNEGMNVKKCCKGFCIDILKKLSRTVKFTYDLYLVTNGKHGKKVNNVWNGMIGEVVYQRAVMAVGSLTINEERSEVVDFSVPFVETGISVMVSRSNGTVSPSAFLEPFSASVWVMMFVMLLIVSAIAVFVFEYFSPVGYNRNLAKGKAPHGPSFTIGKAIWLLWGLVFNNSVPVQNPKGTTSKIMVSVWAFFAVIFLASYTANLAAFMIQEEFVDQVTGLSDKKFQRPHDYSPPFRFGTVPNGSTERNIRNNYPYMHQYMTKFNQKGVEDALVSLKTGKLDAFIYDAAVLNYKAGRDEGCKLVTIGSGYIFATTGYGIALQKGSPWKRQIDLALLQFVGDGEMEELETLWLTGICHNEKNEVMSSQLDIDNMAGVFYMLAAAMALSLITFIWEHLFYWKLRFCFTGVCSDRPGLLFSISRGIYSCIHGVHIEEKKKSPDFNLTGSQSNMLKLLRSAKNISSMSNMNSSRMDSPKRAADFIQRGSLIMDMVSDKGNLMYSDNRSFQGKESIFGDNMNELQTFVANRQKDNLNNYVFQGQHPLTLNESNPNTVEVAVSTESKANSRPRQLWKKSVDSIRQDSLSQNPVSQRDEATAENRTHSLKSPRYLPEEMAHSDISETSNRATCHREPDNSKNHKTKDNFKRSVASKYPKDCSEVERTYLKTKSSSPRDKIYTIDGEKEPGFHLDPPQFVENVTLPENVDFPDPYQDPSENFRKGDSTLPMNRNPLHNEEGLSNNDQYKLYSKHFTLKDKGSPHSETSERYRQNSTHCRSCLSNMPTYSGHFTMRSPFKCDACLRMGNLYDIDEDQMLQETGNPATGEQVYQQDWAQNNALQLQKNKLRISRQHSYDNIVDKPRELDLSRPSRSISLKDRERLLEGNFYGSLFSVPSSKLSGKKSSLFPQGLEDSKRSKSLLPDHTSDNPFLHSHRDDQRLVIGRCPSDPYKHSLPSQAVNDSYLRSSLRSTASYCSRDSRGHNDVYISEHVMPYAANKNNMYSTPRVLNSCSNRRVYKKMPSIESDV

| Compound | EC50 (Table 2) [nM] | Max % (Table 2) [%] | EC50 (Table 3) [nM] |
| --- | --- | --- | --- |
| Cc1sc2nc(COc3ccc(F)cc3)cc(=O)n2c1C1CC1CO (single isomer, unassigned) [Example 4.3, 7-(4-Fluorophenoxymethyl)-3-[trans-2-(hydroxymethyl)cyclopropyl]-2-methyl-5H-[1,3]thiazolo[3,2-a]pyrimidin-5-one] | 20500 | 71.6 |  |
| Cc1sc2nc(COc3ccc(F)cc3)cc(=O)n2c1C1CC1C#N (single isomer, unassigned) [Example 4.19, cis-2-[7-(4-Fluorophenoxymethyl)-2-methyl-5-oxo-5H-[1,3]thiazolo[3,2-a]pyrimidin-3-yl]cyclopropane-1-carbonitrile] | 9000 | 46.9 |  |
| Cc1sc2nc(COc3ccc(F)cc3)cc(=O)n2c1C1CC1C#N (single isomer, unassigned) [Example 4.20, cis-2-[7-(4-Fluorophenoxymethyl)-2-methyl-5-oxo-5H-[1,3]thiazolo[3,2-a]pyrimidin-3-yl]cyclopropane-1-carbonitrile] | 2400 | 93.9 |  |
| Cc1sc2nc(COc3ccc(F)cc3)cc(=O)n2c1[C@@H]1C[C@H]1C#N (single isomer, unassigned) [Example 4.21, trans-2-[7-(4-Fluorophenoxymethyl)-2-methyl-5-oxo-5H-[1,3]thiazolo[3,2-a]pyrimidin-3-yl]cyclopropane-1-carbonitrile] | 16300 | 47.4 |  |
| Cc1sc2nc(COc3ccc(F)cc3)cc(=O)n2c1[C@@H]1C[C@H]1C#N (single isomer, unassigned) [Example 4.22, trans-2-[7-(4-Fluorophenoxymethyl)-2-methyl-5-oxo-5H-[1,3]thiazolo[3,2-a]pyrimidin-3-yl]cyclopropane-1-carbonitrile] |  | 84.2 |  |
| Cc1sc2nc(Cn3nc(C(F)(F)F)cc3Cl)cc(=O)n2c1C1CC1C#N (single isomer, unassigned) [compound 125] |  |  | 27.8 |
| Cc1sc2nc(Cn3nc(C(F)(F)F)cc3Cl)cc(=O)n2c1[C@@H]1C[C@@H]1C#N (single isomer, unassigned) [compound 126] |  |  | 249 |
| Cc1sc2nc(Cn3nc(C(F)(F)F)cc3Cl)cc(=O)n2c1C1CC1CO (single isomer, unassigned) [compound 136] |  |  | 39.1 |
| Cc1sc2nc(Cn3nc(C(F)(F)F)cc3Cl)cc(=O)n2c1C1CC1CO (single isomer, unassigned) [compound 137] |  |  | 420 |
| Cc1sc2nc(Cn3nc(C(F)(F)F)cc3Cl)cc(=O)n2c1C1CC1C (single isomer, unassigned) [compound 154] |  |  | 504 |
| Cc1sc2nc(Cn3nc(C(F)(F)F)cc3Cl)cc(=O)n2c1C1CC1C (single isomer, unassigned) [compound 155] |  |  | 61.6 |
| N#CC1CC1c1c(C(F)(F)F)sc2nc(Cn3nc(C(F)(F)F)cc3Cl)cc(=O)n12 (single isomer, unassigned) [compound 207] |  |  | 7.4 |
| N#CC1CC1c1c(C(F)(F)F)sc2nc(Cn3nc(C(F)(F)F)cc3Cl)cc(=O)n12 (single isomer, unassigned) [compound 208] |  |  | 370 |
| N#CC1CC1c1c(Cl)sc2nc(Cn3nc(C(F)(F)F)cc3Cl)cc(=O)n12 (single isomer, unassigned) [compound 266] |  |  | 24.9 |
| O=c1cc(Cn2nc(C(F)(F)F)cc2Cl)nc2sc(C(F)(F)F)c([C@@H]3C[C@H]3CO)n12 (single isomer, unassigned) [compound 269] |  |  | 83.1 |
| O=c1cc(Cn2nc(C(F)(F)F)cc2Cl)nc2sc(C(F)(F)F)c(C3CC3CO)n12 (single isomer, unassigned) [compound 270] |  |  | 518 |
| Cc1sc2nc(Cn3ccc(C(F)(F)F)n3)cc(=O)n2c1C1CC1C#N (single isomer, unassigned) [compound 272] |  |  | 252 |
| Cc1sc2nc(Cn3ccc(C(F)(F)F)n3)cc(=O)n2c1C1CC1C#N (single isomer, unassigned) [compound 273] |  |  | 2080 |
| Cc1sc2nc(Cn3nc(C(F)(F)F)cc3Br)cc(=O)n2c1[C@@H]1C[C@@H]1C#N (single isomer, unassigned) [compound 274] |  |  | 12 |
| Cc1sc2nc(Cn3nc(C(F)(F)F)cc3Br)cc(=O)n2c1C1CC1C#N (single isomer, unassigned) [compound 275] |  |  | 73.7 |
| N#CC1CC1c1c(C(F)(F)F)sc2nc(Cn3nc(C(F)(F)F)cc3Cl)c(F)c(=O)n12 (single isomer, unassigned) [compound 276] |  |  | 36.4 |

Further lines, results first:

| EC50 (Table 2) [nM] | Max % (Table 2) [%] | EC50 (Table 3) [nM] | Compound |
| --- | --- | --- | --- |
| 91 | 164 |  | CCN(Cc1cc(=O)n2c(C3CC3CO)c(C)sc2n1)c1ccc(F)cc1 (single isomer, unassigned) [Example 5.18, 7-((ethyl(4-fluorophenyl)amino)methyl)-3-(trans-2-(hydroxymethyl)cyclopropyl)-2-methyl-5H-thiazolo[3,2-a] pyrimidin-5-one] |
| 1700 | 141 |  | CCN(Cc1cc(=O)n2c(C3CC3CO)c(C)sc2n1)c1ccc(F)cc1 (single isomer, unassigned) [Example 5.19, 7-((ethyl(4-fluorophenyl)amino)methyl)-3-(trans-2-(hydroxymethyl)cyclopropyl)-2-methyl-5H-thiazolo[3,2-a] pyrimidin-5-one] |
| 32.9 | 162 |  | Cc1sc2nc(CN(CCF)c3ccc(F)cc3)cc(=O)n2c1C1CC1CO (single isomer, unassigned) [Example 5.42, 7-[[4-fluoro-N-(2-fluoroethyl)anilino]methyl]-3-trans-2-(hydroxymethyl)cyclopropyl]-2-methyl-thiazolo[3,2-a]pyrimidin-5-one] |
| 821 | 145 |  | Cc1sc2nc(CN(CCF)c3ccc(F)cc3)cc(=O)n2c1[C@@H]1C[C@H]1CO (single isomer, unassigned) [Example 5.43, 7-[[4-fluoro-N-(2-fluoroethyl)anilino]methyl]-3-[trans-2-(hydroxymethyl)cyclopropyl]-2-methyl-thiazolo[3,2-a]pyrimidin-5-one] |
| 1300 | 150 |  | CCN(Cc1cc(=O)n2c3c(sc2n1)CCC3CO)c1ccc(F)cc1 (single isomer, unassigned) [Example 8.3, 6-[(N-ethyl-4-fluoro-anilino)methyl]-1-(hydroxymethyl)-2,3-dihydro-1H-cyclopenta[3,4]thiazolo[1,4-a]pyrimidin-8-one] |
| 569 | 164 |  | CCN(Cc1cc(=O)n2c3c(sc2n1)CCC3CO)c1ccc(F)cc1 (single isomer, unassigned) [Example 8.4, 6-[(N-ethyl-4-fluoro-anilino)methyl]-1-(hydroxymethyl)-2,3-dihydro-1H-cyclopenta[3,4]thiazolo[1,4-a]pyrimidin-8-one] |
| 1600 | 183 |  | CCN(Cc1cc(=O)n2c(C(O)CCO)c(C)sc2n1)c1ccc(F)cc1 (single isomer, unassigned) [Example 12.3, 3-(1,3-dihydroxypropyl)-7-[(N-ethyl-4-fluoro-anilino)methyl]-2-methyl-thiazolo[3,2-a]pyrimidin-5-one] |
| 591 | 176 |  | CCN(Cc1cc(=O)n2c(C(O)CCO)c(C)sc2n1)c1ccc(F)cc1 (single isomer, unassigned) [Example 12.4, 3-(1,3-dihydroxypropyl)-7-[(N-ethyl-4-fluoro-anilino)methyl]-2-methyl-thiazolo[3,2-a]pyrimidin-5-one] |
|  | 67.6 |  | Cc1cc(C2CC2)n(Cc2cc(=O)n3c([C@@H]4C[C@H]4CO)c(C)sc3n2)n1 (single isomer, unassigned) [Example 15.13, 7-[(5-cyclopropyl-3-methyl-pyrazol-1-yl)methyl]-3-[2-(hydroxymethyl)cyclopropyl]-2-methyl-thiazolo[3,2-a]pyrimidin-5-one] |
| 3100 | 159 |  | Cc1cc(C2CC2)n(Cc2cc(=O)n3c([C@@H]4C[C@H]4CO)c(C)sc3n2)n1 (single isomer, unassigned) [Example 15.14, 7-[(5-cyclopropyl-3-methyl-pyrazol-1-yl)methyl]-3-[2-(hydroxymethyl)cyclopropyl]-2-methyl-thiazolo[3,2-a]pyrimidin-5-one] |
|  | 61.9 |  | Cc1sc2nc(Cn3nc(C4CC4)cc3C)cc(=O)n2c1[C@@H]1C[C@H]1CO (single isomer, unassigned) [Example 15.15, 7-[(3-cyclopropyl-5-methyl-pyrazol-1-yl)methyl]-3-[2-(hydroxymethyl)cyclopropyl]-2-methyl-thiazolo[3,2-a]pyrimidin-5-one] |
| 17700 | 115 |  | Cc1sc2nc(Cn3nc(C4CC4)cc3C)cc(=O)n2c1C1CC1CO (single isomer, unassigned) [Example 15.16, 7-[(3-cyclopropyl-5-methyl-pyrazol-1-yl)methyl]-3-[2-(hydroxymethyl)cyclopropyl]-2-methyl-thiazolo[3,2-a]pyrimidin-5-one] |
